Laboratory results taken from patent publication US20230331792A1, “NEW MULTI-FUNCTIONAL OLIGOPEPTIDES” (ENLITISA (SHANGHAI) PHARMACEUTICAL CO., LTD., priority 2019, published 2023).
Square brackets hold non-standard residues; d marks the D form. Ends that are not written are not given here. Dopa = N[C@@H](Cc1ccc(O)c(O)c1)C(=O)O; Hyp = O=C(O)[C@@H]1C[C@@H](O)CN1

System: SD rats
Assay: Experimental gastric ulcer model (anhydrous alcohol)
Type: in vivo
Protocol: SPF grade SD rats were used in this experiment, with 10 rats in each group. According to an evaluation method of health food for gastric ulcer issued by Chinese State Food and Drug Administration, the protective effect of Compound B on acute gastric ulcers induced by anhydrous alcohol was observed after continuous gavage for 30 days.
Omeprazole enteric-coated capsules (20 mg/capsule; Heilongjiang Norgas Pharmaceutical Co., Ltd., China) were opened and the powder was dissolved in water to make a 2 mg/mL solution. Compound B (see Example 7 above) powder was dissolved in water to make two solutions with concentrations of 0.25 mg/mL and 0.75 mg/mL. Administration volumes were […].
All drugs were administrated as shown in Table 13 by oral gavage for 30 consecutive days, once per day. The rats had free access to water. On the 30th day, rats were fasted for 24 hours after the last drug administration. On the 31st day, 1.0 mL/rat of absolute ethanol was given by gavage to each rat in all of the experimental groups except the control group.
1 hour later, all of the rats were sacrificed and dissected to expose the intact stomach, followed by ligation of the pylorus. 10% formaldehyde solution was administered into the stomach by perfusion and fixed for 20 minutes. The stomach was dissociated after fixation and cut open along the greater curvature. The stomach contents were washed off the lining with saline to reveal the gastric mucosa.
The length and width of gastric mucosal bleeding were measured with a Vernier calliper under a stereo microscope or by the naked eye.

With “{[(Ala-Lys-Pro-Ser-Tyr-Hyp-Hyp-Thr-DOPA-Lys)2-Lys]2-Lys}2-Lys (AKPSY[Hyp][Hyp]T[Dopa]KKKK; also: branched lysine dendrimer {[(peptide)2-Lys]2-Lys}2-Lys) [Compound B]” the Damage score (0.25 mg/mL, 0.5 mg/kg oral gavage once per day for 30 days) was 24, the Damage score (0.75 mg/mL, 1.5 mg/kg oral gavage once per day for 30 days) was 18 and the “effect on gastric bleeding induced by alcohol” value (0.5 and 1.5 mg/kg) was “may reduce gastric bleeding induced by alcohol”.
